Data from US20260007133A1, “HERBICIDAL COMPOSITION COMPRISING AZINE COMPOUNDS” (BASF SE, priority 2022, published 2026).
Like-named read-outs stand apart in the source and are kept apart here.

Legend:
Type in all cases: in vivo
Euphorbia heterophylla [1] = experiment: Greenhouse pre-emergence (PRE) herbicidal test on EPHHL; conditions: Euphorbia heterophylla, pre-emergence; for inhibition at 8 g/ha: use rate 8 gai/ha
In short: (§1)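 Scoring ran from 0 (normal growth) to 100 (no emergence or above-ground parts fully destroyed) and was done 20 DAT. Application was pre-emergent in pots of loamy sand (~3.0% humus) sown per species. Plants grew at 10-25° C or 20-35° C by species.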

Digitaria sanguinalis = experiment: Greenhouse post-emergence (POST) herbicidal test on DIGSA; conditions: for inhibition at 2 g/ha / inhibition at 8 g/ha: Digitaria sanguinalis, post-emergence; for inhibition at 2 g/ha: use rate 2 gai/ha
In short: (§2)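 Weeds grown in loamy sand (~3.0% humus) to 3–15 cm were sprayed post-emergence with compounds suspended or emulsified in water, formulated as 5% emulsion concentrates. Plants were kept at 10-25 °C or 20-35 °C by species. Damage was scored 0–100 (100 = complete destruction) at 20 DAT.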

Setaria viridis = experiment: Greenhouse pre-emergence (PRE) herbicidal test on SETVI; conditions: Setaria viridis, pre-emergence; for inhibition at 2 g/ha: use rate 2 gai/ha
In short: (§3)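 Visual rating on a 0 (normal growth) to 100 (no emergence or above-ground kill) scale at 20 DAT. Treatment was pre-emergence spray of aqueous suspension/emulsion right after sowing into loamy sand with ~3.0% humus; covered until rooted, grown at 10-25° C or 20-35° C depending on species.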

Amaranthus retroflexus = experiment: Greenhouse pre-emergence (PRE) herbicidal test on AMARE; conditions: Amaranthus retroflexus, pre-emergence; AMARE PRE, use rate 2 gai/ha; read-out: % activity
In short: as §1

Geranium pusillum [2] = experiment: Greenhouse pre-emergence (PRE) herbicidal test on GERPU; conditions: Geranium pusillum, pre-emergence, 480 h, PRE, use rate 2 gai/ha, 20 DAT
In short: as §3

Ipomoea hederacea = experiment: Greenhouse post-emergence (POST) herbicidal test on IPOHE; conditions: Ipomoea hederacea, post-emergence
In short: as §2

Lolium multiflorum = experiment: Greenhouse pre-emergence (PRE) herbicidal test on LOLMU; conditions: Lolium multiflorum, pre-emergence; for inhibition at 8 g/ha: use rate 8 gai/ha
In short: as §1

Geranium pusillum [3] = experiment: Greenhouse post-emergence (POST) herbicidal test on GERPU; conditions: Geranium pusillum, post-emergence, 480 h, POST, GERPU, 20 DAT
In short: as §2

Euphorbia heterophylla [4] = experiment: Greenhouse post-emergence (POST) herbicidal test on EPHHL; conditions: Euphorbia heterophylla, post-emergence, 480 h, POST, EPHHL, 20 DAT, read-out: solo application % activity
In short: as §2

Abutilon theophrasti [5] = experiment: Greenhouse pre-emergence (PRE) herbicidal test on ABUTH; conditions: Abutilon theophrasti, pre-emergence; for inhibition at 8 g/ha: use rate 8 gai/ha
In short: as §1

Alopecurus myosuroides = experiment: Greenhouse pre-emergence (PRE) herbicidal test on ALOMY; conditions: Alopecurus myosuroides, pre-emergence, 480 h, PRE, ALOMY, 20 DAT
In short: as §1

Abutilon theophrasti [6] = experiment: Greenhouse post-emergence (POST) herbicidal test on ABUTH; conditions: Abutilon theophrasti, post-emergence, 480 h, POST, ABUTH, 20 DAT
In short: as §2

[7] = use rate 2 gai/ha, read-out: solo application % activity
[8] = use rate 8 gai/ha, read-out: solo application % activity

## COc1c(Cl)c(F)c(F)c(F)c1Nc1nc(N)nc(C(C)(C)F)n1 [Compound I-4, N4-(5-Chloro-2,3,4-trifluoro-6-methoxy-phenyl)-6-(1-fluoro-1-methyl-ethyl)-1,3,5-triazine-2,4-diamine]
Euphorbia heterophylla [1]; 480 h, PRE, EPHHL, I-4 solo 8 gai/ha, 20 DAT
  pest or weed control at 8 g/ha: 5%
Euphorbia heterophylla [1]; 480 h, PRE, EPHHL, use rate 2 gai/ha, 20 DAT, read-out: solo application % activity
  inhibition at 2 g/ha: 0%
Euphorbia heterophylla [1]; 480 h, PRE, EPHHL, 20 DAT, read-out: solo application % activity
  inhibition at 8 g/ha: 10%
Euphorbia heterophylla [1]; EPHHL PRE, read-out: % activity
  inhibition at 8 g/ha: 40%
Digitaria sanguinalis; DIGSA POST, use rate 8 gai/ha
  % activity: 35%
Digitaria sanguinalis; 480 h, POST, DIGSA, 20 DAT, read-out: solo application % activity
  inhibition at 2 g/ha: 0%
Digitaria sanguinalis; 480 h, POST, DIGSA, use rate 8 gai/ha, 20 DAT, read-out: solo application % activity
  inhibition at 8 g/ha: 0%
Digitaria sanguinalis; DIGSA POST, read-out: % activity
  inhibition at 2 g/ha: 10%
Digitaria sanguinalis; DIGSA POST, use rate 8 gai/ha, read-out: % activity
  inhibition at 8 g/ha: 25%
Setaria viridis; 480 h, PRE, SETVI, I-4 solo 8 gai/ha, 20 DAT
  pest or weed control at 8 g/ha: 80%
Setaria viridis; 480 h, PRE, SETVI, 20 DAT, read-out: solo application % activity
  inhibition at 2 g/ha: 5%
Setaria viridis; 480 h, PRE, SETVI, use rate 8 gai/ha, 20 DAT, read-out: solo application % activity
  inhibition at 8 g/ha: 75%
Setaria viridis; SETVI PRE, read-out: % activity
  inhibition at 2 g/ha: 50%
Amaranthus retroflexus
  inhibition at 2 g/ha: 70%
Geranium pusillum [2]
  inhibition at 2 g/ha: 10%
Ipomoea hederacea; 480 h, POST, IPOHE, use rate 8 gai/ha, 20 DAT, read-out: solo application % activity
  inhibition at 8 g/ha: 80%
Ipomoea hederacea; IPOHE POST, use rate 2 gai/ha, read-out: % activity
  inhibition at 2 g/ha: 40%
Lolium multiflorum; 480 h, PRE, LOLMU, I-4 solo 2 gai/ha, 20 DAT, read-out: % activity
  pest or weed control at 2 g/ha: 10%
Lolium multiflorum; 480 h, PRE, LOLMU, I-4 solo 8 gai/ha, 20 DAT
  pest or weed control at 8 g/ha: 65%
Lolium multiflorum; 480 h, PRE, LOLMU, use rate 2 gai/ha, 20 DAT, read-out: solo application % activity
  inhibition at 2 g/ha: 5%
Lolium multiflorum; 480 h, PRE, LOLMU, 20 DAT, read-out: solo application % activity
  inhibition at 8 g/ha: 60%
Lolium multiflorum; LOLMU PRE, read-out: % activity
  inhibition at 8 g/ha: 35%
Geranium pusillum [3]; I-4 solo 2 gai/ha
  pest or weed control at 2 g/ha: 10%
Geranium pusillum [3]; I-4 solo 8 gai/ha
  pest or weed control at 8 g/ha: 30%
Geranium pusillum [3]; [7]
  inhibition at 2 g/ha: 5%
Geranium pusillum [3]; [8]
  inhibition at 8 g/ha: 25%
Euphorbia heterophylla [4]; use rate 2 gai/ha
  inhibition at 2 g/ha: 30%
Euphorbia heterophylla [4]; use rate 8 gai/ha
  inhibition at 8 g/ha: 35%
Abutilon theophrasti [5]; 240 h, PRE, 10 DAT, read-out: % activity
  inhibition at 8 g/ha: 50%
Abutilon theophrasti [5]; 240 h, PRE, use rate 16 gai/ha, 10 DAT
  inhibition at 16 g/ha: 70%
Abutilon theophrasti [5]; 480 h, PRE, ABUTH, I-4 solo 2 gai/ha, 20 DAT
  pest or weed control at 2 g/ha: 35%
Abutilon theophrasti [5]; 480 h, PRE, ABUTH, 20 DAT, read-out: solo application % activity
  inhibition at 8 g/ha: 90%
Abutilon theophrasti [5]; ABUTH PRE, use rate 2 gai/ha, read-out: % activity
  inhibition at 2 g/ha: 10%
Abutilon theophrasti [5]; ABUTH PRE, read-out: % activity
  inhibition at 8 g/ha: 80%
Alopecurus myosuroides; I-4 solo 2 gai/ha, read-out: % activity
  pest or weed control at 2 g/ha: 50%
Alopecurus myosuroides; [7]
  inhibition at 2 g/ha: 5%
Alopecurus myosuroides; [8]
  inhibition at 8 g/ha: 25%
Abutilon theophrasti [6]; I-4 solo 2 gai/ha
  pest or weed control at 2 g/ha: 20%
Abutilon theophrasti [6]; [7]
  inhibition at 2 g/ha: 10%
Abutilon theophrasti [6]; [8]
  inhibition at 8 g/ha: 10%
